Source: BigSolDB 2.1

O=C(O)[C@@H]1Cc2ccccc2N1
solubility (mole fraction) (in ethanol, 283.15 K): 0.00168
solubility (mole fraction) (in ethanol, 288.15 K): 0.00216
solubility (mole fraction) (in ethanol, 292.85 K): 0.00284
solubility (mole fraction) (in ethanol, 298.25 K): 0.00358
solubility (mole fraction) (in ethanol, 303.05 K): 0.00454
solubility (mole fraction) (in ethanol, 308.15 K): 0.00572
solubility (mole fraction) (in ethanol, 313.45 K): 0.00721
solubility (mole fraction) (in ethanol, 318.55 K): 0.00895
solubility (mole fraction) (in ethanol, 323.35 K): 0.0107
solubility (mole fraction) (in ethanol, 328.75 K): 0.0138
solubility (mole fraction) (in ethanol, 333.25 K): 0.0159
solubility (mole fraction) (in ethanol, 338.25 K): 0.0186
solubility (mole fraction) (in ethanol, 343.15 K): 0.022
solubility (mole fraction) (in isopropanol, 283.15 K): 0.000941
solubility (mole fraction) (in isopropanol, 288.15 K): 0.0015
solubility (mole fraction) (in isopropanol, 293.25 K): 0.00197
solubility (mole fraction) (in isopropanol, 298.15 K): 0.0028
solubility (mole fraction) (in isopropanol, 303.35 K): 0.00387
solubility (mole fraction) (in isopropanol, 307.95 K): 0.00504
solubility (mole fraction) (in isopropanol, 313.05 K): 0.00685
solubility (mole fraction) (in isopropanol, 318.65 K): 0.0093
solubility (mole fraction) (in isopropanol, 323.55 K): 0.0109
solubility (mole fraction) (in isopropanol, 328.35 K): 0.0144
solubility (mole fraction) (in isopropanol, 333.15 K): 0.0169
solubility (mole fraction) (in isopropanol, 338.35 K): 0.0202
solubility (mole fraction) (in isopropanol, 343.05 K): 0.0241
solubility (mole fraction) (in isopropanol, 348.75 K): 0.0299
solubility (mole fraction) (in isopropanol, 353.15 K): 0.0369
solubility (mole fraction) (in methanol, 283.15 K): 0.00436
solubility (mole fraction) (in methanol, 288.25 K): 0.00543
solubility (mole fraction) (in methanol, 292.75 K): 0.00647
solubility (mole fraction) (in methanol, 298.15 K): 0.00809
solubility (mole fraction) (in methanol, 302.95 K): 0.0103
solubility (mole fraction) (in methanol, 308.05 K): 0.0122
solubility (mole fraction) (in methanol, 313.15 K): 0.0145
solubility (mole fraction) (in methanol, 318.25 K): 0.0166
solubility (mole fraction) (in methanol, 323.15 K): 0.019
solubility (mole fraction) (in methanol, 328.55 K): 0.0201
solubility (mole fraction) (in methanol, 333.15 K): 0.026
solubility (mole fraction) (in n-butanol, 283.15 K): 0.00228
solubility (mole fraction) (in n-butanol, 288.35 K): 0.00316
solubility (mole fraction) (in n-butanol, 293.05 K): 0.00395
solubility (mole fraction) (in n-butanol, 298.25 K): 0.00481
solubility (mole fraction) (in n-butanol, 303.55 K): 0.00592
solubility (mole fraction) (in n-butanol, 308.05 K): 0.00708
solubility (mole fraction) (in n-butanol, 313.65 K): 0.0083
solubility (mole fraction) (in n-butanol, 318.45 K): 0.0102
solubility (mole fraction) (in n-butanol, 323.25 K): 0.0111
solubility (mole fraction) (in n-butanol, 328.05 K): 0.0131
solubility (mole fraction) (in n-butanol, 332.95 K): 0.0144
solubility (mole fraction) (in n-butanol, 338.15 K): 0.0162
solubility (mole fraction) (in n-butanol, 343.55 K): 0.0186
solubility (mole fraction) (in n-butanol, 348.95 K): 0.0217
solubility (mole fraction) (in n-butanol, 353.05 K): 0.0237
solubility (mole fraction) (in n-butanol, 358.15 K): 0.0268
solubility (mole fraction) (in n-propanol, 283.15 K): 0.000819
solubility (mole fraction) (in n-propanol, 288.25 K): 0.00105
solubility (mole fraction) (in n-propanol, 293.05 K): 0.00153
solubility (mole fraction) (in n-propanol, 298.35 K): 0.00211
solubility (mole fraction) (in n-propanol, 303.15 K): 0.00284
solubility (mole fraction) (in n-propanol, 308.45 K): 0.0039
solubility (mole fraction) (in n-propanol, 313.15 K): 0.00502
solubility (mole fraction) (in n-propanol, 318.75 K): 0.00673
solubility (mole fraction) (in n-propanol, 323.25 K): 0.00835
solubility (mole fraction) (in n-propanol, 328.15 K): 0.0107
solubility (mole fraction) (in n-propanol, 333.05 K): 0.0135
solubility (mole fraction) (in n-propanol, 338.15 K): 0.0167
solubility (mole fraction) (in n-propanol, 343.55 K): 0.0214
solubility (mole fraction) (in n-propanol, 348.65 K): 0.0261
solubility (mole fraction) (in n-propanol, 353.15 K): 0.0304
solubility (mole fraction) (in n-propanol, 358.15 K): 0.0397
solubility (mole fraction) (in water, 283.15 K): 0.000308
solubility (mole fraction) (in water, 288.35 K): 0.000309
solubility (mole fraction) (in water, 292.25 K): 0.000316
solubility (mole fraction) (in water, 297.45 K): 0.000322
solubility (mole fraction) (in water, 302.15 K): 0.000335
solubility (mole fraction) (in water, 308.55 K): 0.000365
solubility (mole fraction) (in water, 313.15 K): 0.000401
solubility (mole fraction) (in water, 318.25 K): 0.00046
solubility (mole fraction) (in water, 323.45 K): 0.000547
solubility (mole fraction) (in water, 328.65 K): 0.000673
solubility (mole fraction) (in water, 333.15 K): 0.000825
solubility (mole fraction) (in water, 338.55 K): 0.00108
solubility (mole fraction) (in water, 342.95 K): 0.00138
solubility (mole fraction) (in water, 348.75 K): 0.00196
solubility (mole fraction) (in water, 353.15 K): 0.0026
solubility (mole fraction) (in water, 358.15 K): 0.00366
